# Source: patent US20220175862A1, “CO-ADMINISTRATION COMPOSITION FOR PREVENTING OR TREATING HYPERCHOLESTEROLEMIA, CONTAINING BALLOON-FLOWER EXTRACT OR PLATYCODIN D DERIVED THEREFROM AS ACTIVE INGREDIENT” (University-Industry Cooperation Group of Kyung Hee …, priority 2019, published 2022)
# Tests used:
# [1] = test system: LDLR expression in HepG2 cells; assay: LDLR protein expression by Western blot; format: cell-based; conditions: 24 h
# Experimental: (§1) Cells were treated with PD and PG for 24 h. Proteins were separated on 10% SDS-PAGE and transferred to nitrocellulose membranes. The membranes were incubated overnight at 4° C. For reference, anti-LDLR, Mylip/IDOL and LXRα were purchased from Abcam (Cambridge, UK), and anti-GAPDH was purchased from Cell Signaling (MA, USA). Further, anti-PCSK9 was purchased from Proteintech (Chicago. USA). The blots were then incubated with HRP-conjugated secondary antibody for 1 h at room temperature and measured using a Pierce ECL Western Blotting Substrate (Thermo Scientific, MA, USA).
# There is a report that LDLR mediates the uptake of LDL-induced cholesterol from plasma, lowering blood cholesterol levels. Therefore, it was examined whether PG and PD upregulate LDLR expression in HepG2 cells.
# Generally, statins are widely used for lowering blood levels of LDL-C, because they upregulate hepatic LDLR expression and enhance the uptake of LDL-C in the blood. To investigate whether PG and PD have a synergistic effect with statins on LDLR expression, HepG2 cells were treated with PG or PD together with simvastatin for 24 h, and then the expression levels of LDLR were examined by Western blotting.
# IDOL mRNA in HepG2 cells = assay: IDOL mRNA expression by RT-PCR; format: cell-based
# Experimental: (§2) Cells were dispensed in a 6-well plate, and treated with PD or PG for 24 h, and then total RNA was extracted using an R&A-BLUE Total RNA extraction kit (iNtRON Biotechnology, Inc., Korea). Next, complementary DNA (cDNA) was synthesized from 1 μg of RNA using a PrimeScript 1 st strand cDNA Synthesis Kit (Takara Biotechnology, Dalian. Liaoning, China). RT-PCR was performed with a Maxime PCR PreMix Kit (i-StarTaq) (iNtRON Biotechnology, Inc., Korea). Sequences of primers used herein are as in Table 1, and GAPDH was used as an internal control.
# To examine whether PD suppresses IDOL mRNA expression, co-treatment of T0901317 (LXR agonist) and PD was performed for 24 h. The LXR is a transcription factor that activates a target gene involved in lipid and cholesterol homeostasis, and IDOL is a representative target gene of LXR. In addition. T0901317 increases the expression of IDOL by binding to LXR.
# LDLR mRNA in HepG2 cells = assay: LDLR mRNA expression by RT-PCR; format: cell-based; conditions: PD 1 μM, 2.5 μM, 24 h
# Experimental: as §2
# To define molecular mechanisms underlying the increased LDLR expression by PG and PD treatment, the effects of PG and PD on expression of genes including IDOL and PCSK9, which are known to regulate LDLR protein levels, were first examined.
# LXRα = LXRα protein expression by Western blot; format: cell-based; conditions: PD 1 μM, 2.5 μM, 5 μM, 24 h
# Experimental: as §1
# [2] = test system: cell surface LDLR in HepG2 cells; assay: Cell surface LDLR analysis by flow cytometry; format: cell-based; conditions: 2.5 μM of PD, 24 h
# Experimental: Cells were treated as described above for 24 h, harvested, and then incubated at 37° C. for 30 min with anti-LDLR (Abcam, Cambridge, UK) diluted at 1:60 in PBS containing 5% BSA. The cells were washed with 1% BSA in PBS and incubated with Alexa Fluor 488-conjugated goat anti-rabbit IgG (Invitrogen, CA, USA) using a 1:250 dilution at 37° C. for 30 min. The cells were fixed with 0.5% PFA for 10 min, resuspended in PBS, and measured by flow cytometry (FACSCalibur, BD Biosciences, San Jose, Calif., USA). Data were analyzed using a CellQuest Pro software (BD Biosciences, USA).
# Next, FACS analysis was performed to examine whether PG and PD increase LDLR expression on cell surface.
# HepG2 cells = assay: Cell viability assay (WST); format: cell-based; conditions: 24 h
# Experimental: Cells were dispensed in a 96-well plate and treated with PG (10 μg/mL, 50 μg/mL, 100 μg/mL, 250 μg/mL, 500 μg/mL) or PD (1 μM, 2.5 μM, 5 μM) for 24 h. After incubation, a WST solution (Daeillab Service, Co., Seoul, Korea) was added to each well and further incubated for 2 h. Next, water-soluble formazan in the medium was measured at 450 nm using an ELISA reader (Molecular Devices, Palo Alto, Calif.).
# To investigate whether PG and PD display cytotoxic effects on HepG2 cells, cell viability was examined by WST1 assay following treatment with different concentrations of PG (10 μg/mL, 50 μg/mL, 100 µg/mL, 250 μg/mL, 500 μg/mL) or PD (1 μM, 2.5 μM, 5 μM). […] However, when high concentrations of 500 μg/mL of PG and 5 μM of PD were treated, cell viability was measured as 85% and 86%, respectively.
# [3] = test system: hypercholesterolemia-induced rat; conditions: cited from earlier work
# [4] = test system: LDL uptake in HepG2 cells; assay: LDL uptake assay (BODIPY-FL-LDL, confocal microscopy); format: cell-based; conditions: PD 2.5 μM 24 h, then BODIPY-LDL 1 h
# Experimental: Cells were dispensed in a 24-well plate and treated as described above. After treatment with drugs, the culture medium was removed and replaced with 5 μg/mL of BODIPY-FL-LDL (Invitrogen, CA, USA) at 37° C. for 1 h. The cells were washed with PBS containing 0.3% BSA and fixed with 4% paraformaldehyde (PFA) for 10 min. Nuclei were stained with 1 μg/mL of DAPI in 2% BSA for 1 min and analyzed using confocal microscopy.
# Then, confocal microscopy was performed.
# LDLR protein = LDLR protein stability after cycloheximide (CHX) treatment, Western blot; format: cell-based; conditions: PD 2.5 μM 24 h, then 100 μg/mL CHX
# Experimental: as §1
# Considering that IDOL mRNA is decreased upon PG and PD treatment, it could be inferred that PG and PD are able to enhance LDLR protein stability. Therefore, LDLR protein levels remaining after treatment with cycloheximide (CHX) which blocks new protein synthesis were examined.
# PCSK9 = PCSK9 Western blot; format: cell-based; conditions: 24 h, indicated concentrations
# Experimental: as §1
smiles,measurement,setting,value
"CCC(C)(C)C(=O)O[C@H]1C[C@@H](C)C=C2C=C[C@H](C)[C@H](CC[C@@H]3C[C@@H](O)CC(=O)O3)[C@H]21 [simvastatin, reference compound]",increase in hepatic LDLR levels vs untreated control cells,"[1]; simvastatin 1 μM alone, HepG2",approximately 2.2 fold
"O=S(=O)(c1ccccc1)N(CC(F)(F)F)c1ccc(C(O)(C(F)(F)F)C(F)(F)F)cc1 [T0901317, reference compound]",mRNA levels of IDOL gene,"IDOL mRNA in HepG2 cells; T0901317 10 μM, 24 h",increased
"C[C@@H]1O[C@@H](O[C@H]2[C@H](OC(=O)[C@]34CCC(C)(C)C[C@H]3C3=CC[C@@H]5[C@@]6(C)C[C@H](O)[C@H](O[C@@H]7O[C@H](CO)[C@@H](O)[C@H](O)[C@H]7O)C(CO)(CO)[C@@H]6CC[C@@]5(C)[C@]3(C)C[C@H]4O)OC[C@H](O)[C@@H]2O)[C@H](O)[C@H](O)[C@H]1O[C@@H]1OC[C@@H](O)[C@H](O[C@@H]2OC[C@](O)(CO)[C@H]2O)[C@H]1O [PD, Platycodin D]",mRNA levels of IDOL,"IDOL mRNA in HepG2 cells; HepG2, 24 h",significantly decreased
same,T0901317-induced increase of IDOL mRNA,"IDOL mRNA in HepG2 cells; co-treatment PD 2.5 μM and T0901317 10 μM, 24 h",attenuated
same,LDLR expression (Western blot),[1]; HepG2 cells,induce LDLR expression in HepG2 cells in a dose-dependent manner
same,LDLR mRNA expression,LDLR mRNA in HepG2 cells,no significant effects
same,LXR-α protein levels,LXRα,did not change
same,"cell surface LDLR levels, as compared with a control",[2],1.2±0.07 fold change
same,cell viability,HepG2 cells; 5 μM of PD,86%
same,cytotoxic effects on HepG2 cells,HepG2 cells; PD 1 μM to 2.5 μM,no significant cytotoxic effects
same,cholesterol in the body,[3],effect of lowering cholesterol
same,increase in the uptake of LDL particles vs untreated control cells,[4],1.7 fold
same,"LDLR protein stability after CHX, vs untreated cells",LDLR protein,significantly stable
same,proteolytic process of PCSK9,PCSK9,do not affect
